In patent US20250163044A1, “COMPOUNDS” (PSYLO PTY LTD, priority 2021, published 2025):
“And” between values parts separate entries of the source, which are not always exact repeats. Equal entries are not always repeated. Where two headings read alike, the source gives them in different places.

Assays:
5-HT2C receptor = target: T1, 5-HT2C receptor (Homo sapiens, UniProt P28335); test: FLIPR Ca2+ flux functional assay, agonist activity at 5-HT2C; format: cell-based
T1 construct: host or cells: HEK293
T1 sequence (P28335 33-458): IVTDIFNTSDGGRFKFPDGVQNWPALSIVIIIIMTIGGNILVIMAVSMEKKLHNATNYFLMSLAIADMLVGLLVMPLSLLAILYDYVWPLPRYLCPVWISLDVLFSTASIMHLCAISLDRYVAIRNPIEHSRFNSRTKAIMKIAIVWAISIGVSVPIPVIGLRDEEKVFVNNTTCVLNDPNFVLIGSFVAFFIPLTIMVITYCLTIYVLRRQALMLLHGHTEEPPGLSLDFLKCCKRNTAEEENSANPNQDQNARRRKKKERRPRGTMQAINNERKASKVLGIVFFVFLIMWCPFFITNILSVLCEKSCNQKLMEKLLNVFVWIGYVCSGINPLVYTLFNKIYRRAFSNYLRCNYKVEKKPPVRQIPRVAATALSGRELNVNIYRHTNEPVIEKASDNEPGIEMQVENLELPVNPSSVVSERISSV
Method: (§1) Activity at 5-HT2A, 5-HT2B and 5-HT2C receptors was determined using a FLIPR Ca2+ flux assay at WuXi AppTec Co. Ltd. (Hong Kong) Discovery Biology Unit according to their standard protocols. Briefly, stably transfected cells expressing the receptor of interest (HEK293 for 5-HT2A and 5-HT2C; CHO-K1 for 5-HT2B) were grown and plated in a 384 well plate and incubated at 37° C. and 5% CO2 overnight. A 250 mM stock solution of probenecid in FLIPR calcium assay buffer (10 mL) was freshly prepared and combined with a fluorescent dye (Fluo-4 Direct) to give a final assay concentration of 2.5 mM. Reference compounds were 4-fold serially diluted and the screening compounds were 3-fold serially diluted in 100% DMSO for 10 points using Agilent Bravo, and 750 nL was added to a 384 well compound plate using Echo along with 30 μL assay buffer. The fluorescent dye was then added to the assay plate along with assay buffer to a final volume of 40 μL. The cell plate was incubated for 50 min at 37° C. and 5% CO2 and placed into the FLIPR Tetra along with the compound plate. 10 μL of references and compounds were then transferred from the compound plate into the cell plate and the fluorescent signal was read.

5-HT2A receptor = target: T2, 5-HT2A receptor (Homo sapiens, UniProt P28223); test: FLIPR Ca2+ flux functional assay, agonist activity at 5-HT2A; format: cell-based
T2 construct: host or cells: HEK293
Method: as §1

5-HT2B receptor = target: T3, 5-HT2B receptor (Homo sapiens, UniProt P41595); test: FLIPR Ca2+ flux functional assay, agonist activity at 5-HT2B; format: cell-based
T3 construct: host or cells: CHO-K1
Method: as §1

C57BL/6J mice = test: Biotelemetry and head-twitch response (HTR) experiments; format: in vivo, Mice (C57BL/6J males); settings: male C57BL/6 mice, SC, several doses (0.03 to 30 mg/kg)
Excerpt: Mice (C57BL/6J males) were purchased from the Jackson Laboratory (Bar Harbor, ME, USA) at 5-6 weeks of age and allowed at least 1-2 weeks to acclimate to the NIDA, Intramural Research Program (IRP), animal research facility in Baltimore, MD, USA. The animal facility is fully accredited by the Association for the Assessment and Accreditation of Laboratory Animal Care, and all procedures were approved by the NIDA IRP Animal Care and Use Committee. Mice were initially group housed 3-5 per cage during acclimation and housed in a 12 h light-dark cycle throughout the study, with lights on at 0700 h. Food and water were available ad libitum except during testing. Cohorts of 20-24 mice were used for each test drug. The mice were subjected to experimental testing once every 1-2 weeks for 2-3 months to complete dose-effect curves and antagonist experiments. A minimum of 7 days between treatments was utilized to avoid any tolerance to effects of repeated drug administration. All drug doses represent the weight of the salt dissolved in 0.9% saline vehicle. Mice were tested first in dose-response studies to assess the effects of each compound at doses from 0.03 to 30 mg/kg s.c. and were subsequently tested in antagonist reversal studies utilizing pretreatment with M100907 and WAY100635. All experiments were conducted from 0900 to 1700 local time during the light phase, as sensitivity of rodents to other tryptamine psychedelics is diurnal, with maximal HTR observed in the middle of the light phase. Experiments were run during the light phase also to avoid any potential influence of melatonin receptor activity on HTR as melatonin and related agonists are known to reduce HTR induced by DOI in rats. For each experiment, mice were acclimated to the testing room in their home cage for at least 1 h prior to experimental sessions. Behavioral test sessions were carried out in Tru Scan mouse locomotor arenas equipped with photobeam arrays (Coulbourn Instruments, Holliston, MA, USA), which were modified with cylindrical inserts and transparent floors useful in detecting mouse HTR.
Subcutaneous Temperature Transponder Implants. At least 1 week prior to the start of the experiments, mice received s.c. implanted temperature transponders (14×2 mm, model IPTT-300, Bio Medic Data Systems, Inc., Seaford, DE, USA) under brief isoflurane anesthesia. Mice were single housed post implant for the remainder of the study to protect the transponder from removal by cage mates. Temperature was determined noninvasively using a handheld receiver that is sensitive to signals emitted from the implanted transponders.
Prior to each experiment, mouse body weight and temperature were recorded. Mice were then placed into testing chambers for acclimation. In dose-response studies, after a brief 5 min acclimation, mouse body temperature was recorded for baseline measurement, mice received s.c. injection of test substance or vehicle, and animals were returned to the testing arena for 30 min. During the session, locomotor activity was monitored via photobeam tracking of movements in the horizontal plane to yield distance traveled in centimeter. HTR was monitored by the analysis of GoPro Hero Black 7 video recordings (120 frames per sec and 960p resolution) using a commercially available software package from Clever Sys Inc. (Reston, VA, USA). 82 Post-treatment body temperature values were also recorded, and temperature data are represented as change from pretreatment baseline.
In antagonist reversal experiments, mice received a s.c. injection of either receptor antagonists or vehicle and were returned to the testing chamber for 30 min. During this period, locomotor activity was monitored to examine the potential effects of antagonist treatment on general behavior or movement. At 30 min after antagonist administration, mice were given test drug or vehicle and returned to the chambers for an additional 30 min of video recording used for analyses. […]

[1] = In vivo pharmacokinetics: plasma and brain exposure after IP administration; parameters: species or system male C57BL/6 mice; settings: for Kp at 0.083 h / Kp at 0.5 h: brain/plasma; for Cmax / Tmax / AUC(0-t): mouse, male C57BL/6 mice; for AUC(0-t): read-out: Plasma AUC0-last
Method: The systemic exposure of selected examples was studied in non-fasted male C57BL/6 mice weighing between 18.9-25.5 g. Mice had access to food and water ad libitum throughout the pre- and post-dose sampling period.
On the day of dosing, the formulation of each compound was prepared by dissolving solid compound in phosphate buffer saline (50 mM) using vortexing, creating colourless solutions (pH 6.4-6.5) for each compound.
Compounds were dosed to mice by IP injection (10 mL/kg dose volume via a 27G needle; n=9 mice per compound) and blood samples were collected at 5 and 30 min; 1, 2 and 4 h post-dose (n=3 mice per time point for each compound). A maximum of three blood samples were obtained from each mouse, with plasma samples being taken via submandibular bleed (approximately 120 μL). Once collected, blood samples were centrifuged immediately, supernatant plasma was removed, and stored at −80° C. until analysis by LCMS. In addition, at the 5 and 30 min and 4 h post-dose time points, the whole brain was rapidly removed from the carcass soon after the blood collection. The whole brains were blotted to remove excess blood, placed into pre-weighed polypropylene vials, and weighed. The brains were snap frozen in dry ice and subsequently stored frozen (−80° C.) until analysis.
Test compound standard solutions were diluted from a concentrated stock solution (32 mM in H2O) using 50% can in H2O (v/v) and a calibration curve was prepared in a matched matrix to the test samples.
Plasma: The plasma calibration curve was prepared by spiking aliquots of blank mouse plasma (25 μL) with test compound standard solutions (5 μL) and internal standard solution (5 μL of diazepam, 5 μg/mL in 50% acetonitrile in water). Test plasma samples (25 μL) were thawed, mixed, and then spiked with internal standard solution (5 μL). Plasma protein precipitation was performed by addition of acetonitrile (3-fold volume ratio) and thorough vortex mixing. Samples were centrifuged (RCF=9391×g) for 3 minutes and the supernatant (90 μL) was collected for analysis.
Tissue: Pre-weighed tissue samples (brain) were homogenised using a glass rod in buffer containing an EDTA/potassium fluoride solution (0.1 M/4 mg/mL) as a stabilisation cocktail to minimise the potential for ex vivo degradation (3 mL cocktail/g tissue). The tissue homogenate was briefly centrifuged (RCF=79×g) for 10 seconds to separate the foam layer before transferring an aliquot of the tissue homogenate (200 μL) to a fresh Eppendorf tube for sample extraction. Calibration standards were prepared by spiking blank brain homogenate (200 μL) with the solution standards (10 μL) and the internal standard (10 μL). Study samples were similarly prepared, except that acetonitrile (10 μL) was added instead of solution standards to maintain the same volume. Protein precipitation was carried out by the addition of a 3-fold volume of acetonitrile, followed by vortex mixing and centrifugation (RCF=9391×g) for 3 min to recover the supernatant for analysis.
Replicate analysis: Triplicate analytical replicate (ARs) samples were prepared similarly to the standards for each sample type at three concentrations (50, 500 and 2,000 ng/mL) and repeat injections of these ARs were included throughout the analytical run to assess assay performance. The extraction of the test compound from the standards and ARs were conducted as described above.

[2] = HEK293 cells, Ca2+ flux, read-out: 5-HT2C EC50
[3] = HEK293 cells, Ca2+ flux, read-out: 5-HT2A EC50
[4] = CHO-K1 cells, Ca2+ flux, read-out: 5-HT2B EC50
[5] = 0.083 h, IP 10 mg/kg, individual mouse, 10 mg/kg
[6] = 0.083 h, IP 10 mg/kg, individual mouse, 10 mg/kg, read-out: Brain Parenchyma Concentration, Individual
[7] = 0.5 h, IP 10 mg/kg, individual mouse, 10 mg/kg
[8] = 0.5 h, IP 10 mg/kg, individual mouse, 10 mg/kg, read-out: Brain Parenchyma Concentration, Individual
[9] = 4 h, IP 10 mg/kg, individual mouse
[10] = male, C57BL/6, mouse, brain, ip, 10 mg/kg, 0.083 h, n = 3, read-out: Brain Parenchyma Concentration, Mean ± SD
[11] = male, C57BL/6, mouse, brain, ip, 10 mg/kg, 0.5 h, n = 3, read-out: Brain Parenchyma Concentration, Mean ± SD
[12] = male, C57BL/6, mouse, ip, 10 mg/kg, 0.083 h, individual mouse, read-out: B:P Ratio, Individual
[13] = male, C57BL/6, mouse, ip, 10 mg/kg, 0.5 h, n = 3, read-out: B:P Ratio, Mean ± SD
[14] = male, C57BL/6, mouse, plasma, ip, 10 mg/kg, 0.083 h, n = 3, read-out: Plasma Concentration, Mean ± SD
[15] = male, C57BL/6, mouse, plasma, ip, 10 mg/kg, 0.5 h, n = 3, read-out: Plasma Concentration, Mean ± SD

T2 sequence (P28223 whole entry): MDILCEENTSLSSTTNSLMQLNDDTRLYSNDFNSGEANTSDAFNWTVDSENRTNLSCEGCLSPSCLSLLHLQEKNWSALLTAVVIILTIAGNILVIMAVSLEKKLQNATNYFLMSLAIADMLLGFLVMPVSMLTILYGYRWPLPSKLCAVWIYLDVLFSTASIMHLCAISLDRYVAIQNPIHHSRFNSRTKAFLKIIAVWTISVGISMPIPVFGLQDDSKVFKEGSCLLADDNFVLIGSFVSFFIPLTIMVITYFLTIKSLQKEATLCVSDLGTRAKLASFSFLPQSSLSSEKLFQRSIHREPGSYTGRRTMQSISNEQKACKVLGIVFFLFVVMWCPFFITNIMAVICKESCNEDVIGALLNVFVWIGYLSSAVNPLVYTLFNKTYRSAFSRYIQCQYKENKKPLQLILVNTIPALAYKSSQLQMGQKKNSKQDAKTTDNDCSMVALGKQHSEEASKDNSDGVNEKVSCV
T3 sequence (P41595 whole entry): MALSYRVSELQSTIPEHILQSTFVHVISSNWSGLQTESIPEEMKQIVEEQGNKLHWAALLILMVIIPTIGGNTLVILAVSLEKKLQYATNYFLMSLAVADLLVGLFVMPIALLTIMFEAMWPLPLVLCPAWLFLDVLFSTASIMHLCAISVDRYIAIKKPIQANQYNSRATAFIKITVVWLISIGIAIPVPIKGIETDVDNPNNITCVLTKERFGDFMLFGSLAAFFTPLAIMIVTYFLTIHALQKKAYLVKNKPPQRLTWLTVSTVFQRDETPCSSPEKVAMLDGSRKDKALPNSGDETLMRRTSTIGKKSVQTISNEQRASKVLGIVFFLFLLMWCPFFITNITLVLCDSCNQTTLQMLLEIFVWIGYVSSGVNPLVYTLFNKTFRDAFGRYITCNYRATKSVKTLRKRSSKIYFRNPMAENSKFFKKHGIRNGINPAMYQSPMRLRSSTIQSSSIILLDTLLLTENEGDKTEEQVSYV

SMILES	Emax (5-HT2C receptor; HEK293 cells, Ca2+ flux) [%]	EC50 (5-HT2C receptor; [2]) [nM]	Emax (5-HT2A receptor; HEK293 cells, Ca2+ flux) [%]	EC50 (5-HT2A receptor; [3]) [nM]	Emax (5-HT2B receptor; CHO-K1 cells, Ca2+ flux) [%]	EC50 (5-HT2B receptor; [4]) [nM]	Head-twitch response (HTR) (C57BL/6J mice)	Tolerability (temperature, locomotor activity) (C57BL/6J mice)	B:P Ratio, Individual [1, 5]	Plasma Concentration, Individual [1, 5]	concentration at 0.5 h [1, 6]	B:P Ratio, Individual [1, 7]	Plasma Concentration, Individual [1, 7]	concentration at 0.5 h [1, 8]	Brain Parenchyma Concentration, Individual [1, 9]	Plasma Concentration, Individual [1, 9]	concentration at 0.083 h [1, 10] [nM]	concentration at 0.5 h [1, 11] [nM]	Kp at 0.083 h [1, 12]	Kp at 0.5 h [1, 13]	further results
COc1ccnc2[nH]cc(CCN(C)C)c12 [Example P-4, 2-(4-methoxy-1H-pyrrolo[2,3-b]pyridin-3-yl)-N,N-dimethylethan-1-amine]	17.9	241	35	1230	-0.27	> 10000	not promoting increased head-twitch response	well-tolerated													
COc1ccc2[nH]cc(CCN(C)C)c2n1 [Example P-1, 2-(5-methoxy-1H-pyrrolo[3,2-b]pyridin-3-yl)-N,N-dimethylethan-1-amine]	74.3		47.7		-1.07		not promoting increased head-twitch response	well-tolerated	0.24 and 0.34	4300 nM and 7630 nM	2060 nM and 1040 nM and 2560 nM	0.30 and 2.3 and 1.0	1030 nM and 307 nM and 420 nM	307 nM and 701 nM and 437 nM	<LLQ	<LLQ	1890 ± 776	482 ± 201	0.27	1.2 ± 1	B:P Ratio, Mean ± SD ([1]; 0.083 h, IP 10 mg/kg, n = 3): 0.28 ± 0.048; concentration at 0.083 h ([1]; male, C57BL/6, mouse, plasma, ip, 10 mg/kg, 0.083 h, individual mouse, read-out: Plasma Concentration, Individual): 7660 nM; concentration at 0.083 h [1, 14]: 6530 ± 1930 nM; concentration at 0.5 h [1, 15]: 585 ± 387 nM; Cmax ([1]; plasma, IP 10 mg/kg): 6530 nM; Tmax ([1]; plasma, IP 10 mg/kg): 5 min; AUC(0-t) ([1]; plasma, IP 10 mg/kg): 1.37 µM·h; EC50 (5-HT2C receptor): 18.8 nM; EC50 (5-HT2A receptor): 34.9 nM; EC50 (5-HT2B receptor): > 10000 nM
COc1nccc2[nH]cc(CCN(C)C)c12 [Example P-5, 2-(4-methoxy-1H-pyrrolo[3,2-c]pyridin-3-yl)-N,N-dimethylethan-1-amine]	79.1	38.4	56.2	24.4	-0.87	> 10000			0.19 and 0.16	5880 nM and 1970 nM and 8280 nM	230 nM and 365 nM and 1360 nM	2.5 and 2.4	985 nM and 776 nM	2420 nM and 1860 nM	<LLQ	<LLQ	984 ± 540	1970 ± 414	0.21	2.3 ± 0.26	concentration at 0.5 h ([1]; male, C57BL/6, mouse, brain, ip, 10 mg/kg, 0.5 h, individual mouse, read-out: Brain Parenchyma Concentration, Individual): 1610 nM; Kp at 0.083 h ([1]; male, C57BL/6, mouse, ip, 10 mg/kg, 0.083 h, n = 3, read-out: B:P Ratio, Mean ± SD): 0.19 ± 0.022; Kp at 0.5 h ([1]; male, C57BL/6, mouse, ip, 10 mg/kg, 0.5 h, individual mouse, read-out: B:P Ratio, Individual): 2; concentration at 0.083 h [1, 14]: 5380 ± 3180 nM; concentration at 0.5 h ([1]; male, C57BL/6, mouse, plasma, ip, 10 mg/kg, 0.5 h, individual mouse, read-out: Plasma Concentration, Individual): 815 nM; concentration at 0.5 h [1, 15]: 859 ± 111 nM; Cmax ([1]; plasma, IP 10 mg/kg): 5380 nM; Tmax ([1]; plasma, IP 10 mg/kg): 5 min; AUC(0-t) ([1]; plasma, IP 10 mg/kg): 1.63 µM·h
CCCN(CCC)CCc1n[nH]c2cccc(OC)c12 [Example P-44, 2-(4-methoxy-1H-indazol-3-yl)-N,N-dipropylethan-1-amine]		1700		259		490															
COc1ccc2onc(CCN(C)C)c2c1 [Example P-9, 2-(5-methoxybenzo[d]isoxazol-3-yl)-N,N-dimethylethan-1-amine]	-30.5	> 10000	37.3	1020	2.53	> 10000															
